Results reported in article PMC5108082, “Pharmacokinetics, toxicity, and cytochrome P450 modulatory activity of plumbagin” (BMC Pharmacology & Toxicology, 2016).
“Also recorded” adds a separate entry of the source.

How the values were obtained:
[1] = test system: CYP1A2; test: CYP1A2 activity (phenacetin O-deethylation) in liver microsomes of treated mice; type: in vivo, mouse; details: for modulation of CYP1A2 activity (paracetamol produced): mice, 25, 12.5, 6.25 mg/kg daily oral for 28 days vs control
Procedure: Mice were divided into four groups (3 male mice each). Mice in the treated groups were fed with plumbagin at a daily oral dose of 25, 12.5, or 6.25 mg/kg body weight (1 mL) for 28 days. The control group received a daily oral dose (1 mL) of 20 % Tween-80 for 28 days. At the end of the experiment period, all animals were sacrificed under ether anesthesia and livers were removed for investigation of the modulatory effect of plumbagin on hepatic CYP1A2 and CYP3A11.
The liver samples were rinsed with ice-cold, 0.9 %NaCl, homogenized in 50 mM sodium phosphate buffer (pH 7.4) containing 0.1 mM EDTA, and centrifuged at 9000 × g for 20 min. The supernatant was ultracentrifuged at 105,000 × g for 60 min, and the resulting microsomal pellets were suspended with ice cold 1.15 % KCl solution and ultracentrifuged at 105,000 × g for 60 min. The pellets were homogenized with 50 mM potassium phosphate (pH 7.4) containing 0.1 mM EDTA and 10 % glycerol. Protein concentrations were determined by Bradford protein assay and the suspended microsomes were aliquoted and stored at −80 °C until use.
Phenacetin O-deethylation and nifedipine oxidation were used as selective markers for CYP1A2 and CYP3A11 activities, respectively. The substrate concentration equivalent to the apparent Km (Michaelis-Menten constant) of each individual CYP450 was used in the experiment. Final concentration of organic solvent in the incubation mixture was less than 1 %. The incubation conditions for determination enzyme activity to both CYP450 isoforms were according to the previously described methods.
The incubation mixture of 500 μL containing the selective substrate (20 μM phenacetin and 40 μm nifedipine for CYP1A2 and CYP3A11, respectively), mice liver microsomes (in 100 mM phosphate buffer pH 7.4) was pre-incubated at 37 °C for 5 min in a shaking water bath. […] Concentrations of paracetamol (metabolite of CYP1A2) and oxidized nifedipine (metabolite of CYP3A11) in the incubation mixtures were determined using HPLC with UV detection. […]

[2] = test system: Wistar rats; test: acute toxicity test, single oral dose; type: in vivo, rat
Procedure: (§1) Plumbagin was dissolved with 20 % Tween-80 to obtain the desired concentrations. Wistar rats were fasting 2 h before administration of a single oral dose of the plumbagin. Animals were divided into eight groups of six (3 males and 3 females for each group). For the acute toxicity test, rats in each group were fed with plumbagin at a single oral dose of 500, 250, or 150 mg/kg body weight (1 mL); control group received a single oral dose of 20 % Tween-80 (1 mL). For the subacute toxicity test, rats in each group were fed with plumbagin at a daily dose of 100, 50, or 25 mg/kg body weight (1 mL) for 28 days; control group received a daily oral dose of 20 % Tween-80 for 28 days (1 mL).
(§2) General behavioral changes of each rat was observed continuously for 1 h after each dose, intermittently every 4 h, and thereafter over a period of 24 h. […] At the end of the observation period, all animals were sacrificed under ether anesthesia (isoflurane) and vital organs (liver, lung, kidney, heart, and spleen) were removed from all animals for gross and histopathological examination. Blood sample was collected from each rat through cardiac puncture for analysis of plasma chemistry (heparin as an anticoagulant) and blood hematology (EDTA as an anticoagulant).

[3] = acute toxicity test, single oral dose; type: in vivo, rat; details: both sexes, Wistar, rat, in vivo, rats, single oral dose
Procedure: as §1, §2

[4] = test system: mice; details: cited from earlier work
[5] = test system: platelet adhesion and coagulation; details: rats, daily doses of 2 mg/kg body weight; plumbagin as a component of Plumbago zeylanica; cited from earlier work
[6] = single oral dose 150 mg/kg body weight, 14 days observation

## CC1=CC(=O)c2c(O)cccc2C1=O [plumbagin, 5-hydroxy-2-methyl-1,4-naphthoquinone]
[1]
  modulation of CYP1A2 activity (paracetamol produced): no significant change; also recorded: not found to induce or inhibit
[1]; listed as Plumbagin
  modulation of CYP1A2 activity (paracetamol produced): did not significantly modulate
[1]; particularly at the lowest dose level of 6.25 mg/kg body weight
  trend of CYP1A2 activity: tended to be reduced
[2]; all dose levels
  gender-specific toxicity: No gender-specific toxicity was observed
[2]; all dose levels (150, 250, 500 mg/kg)
  histopathological examination (liver, kidney, heart, spleen, lung): no significant change in size and morphology
[2]; [6]
  signs of toxicity, water and food consumption, body weight: no visible sign of toxicity
  survival: All rats survived
[2]; single oral dose 250 mg/kg body weight
  animals died: 3/6
[2]; single oral dose 500 mg/kg body weight
  animals died: 6/6
[2]; single oral dose 250 and 500 mg/kg body weight
  signs of toxicity: toxic signs and symptoms including anxiety, salivation, exhibited chewing, and agitation
[3]; read-out: 50 % lethal dose (LD50), acute toxicity
  LD50 at 14 days: 250 mg/kg
[3]; read-out: maximum tolerated dose, acute toxicity
  MTD at 14 days: 150 mg/kg
[4]; mice, for 14 days, ref our previous study
  maximal tolerated dose, subacute toxicity testing: 25 mg/kg body weight
[4]; mice
  types of toxicity reported: diarrhea, skin rashes, leukocytosis, increased serum phosphatase levels
[4]; mice, ref our previous study
  maximal tolerated dose, acute toxicity testing: 100 mg/kg body weight
[4]; mouse, in vivo
  hepatotoxicity: marked increased plasma ALT and AST levels
[5]
  platelet adhesion and coagulation: significantly decreased
